How the values were obtained:
Assay in all cases: 2D cell proliferation assay (CellTiter-Blue)
Format in all cases: cell-based
[1] = test system: PAXF BxPC-3; details: Homo sapiens, 72 h, three days of treatment, read-out: abs. IC50
Method: (§1) Viability of the cells was analyzed by using the CellTiter-Blue® Cell Viability Assay (Promega), and was performed according to manufacturer's instructions. Briefly, cells were harvested from exponential phase cultures (Chapter 6.6), counted and plated in 96-well flat-bottom microtiter plates at a cell density of 4,000-60,000 cells/well in a volume of 140 μl per well. After a 24 hours recovery period, 10 μL cell culture medium (six control wells/plate) or culture medium with test compound were added (Chapter 6.2). The compounds were applied at five concentrations in full-log increments up to 100 μM in duplicate. Cultures were incubated at 37° C. and 5% CO2 in a humidified atmosphere for another three days. After three days of treatment, 20 μl/well CellTiter-Blue® reagent was added. Following incubation with CellTiter-Blue® reagent for up to four hours, fluorescence (FU) was measured by using the Enspire Multimode Plate Reader (excitation λ=570 nm, emission λ=600 nm). For calculations, the mean values of duplicate/sextuplicate (untreated control) data were used.
(§2) An assay was considered fully evaluable if the following quality control criteria were fulfilled: • control/background ratio>3.0-Z′-factor calculated within the assay plate>0.5 [7]—coefficient of variation in the growth control wells <30%
(§3) Drug effects were expressed in terms of the percentage of the fluorescence signal, obtained by comparison of the mean signal in the treated wells with the mean signal of the untreated controls (expressed by the test-versus-control value, T/C-value [%]):
(§4) IC values are reported as relative IC50 values and absolute IC50 and IC70 values. […] The absolute IC70 value gives the concentration of the test compound that achieves T/C=30%. The relative IC50 value is the concentration of test compound that gives a response halfway between the top and bottom plateau of the sigmoidal concentration-response curve (inflection point of the curve). Calculation was done by 4parameter non-linear curve fit (Oncotest Data Warehouse Software).
(§5) If an IC50 or IC70 value could not be determined within the examined dose range (because a compound was either too active or lacked activity), the lowest or highest concentration studied was used for calculation of the geometric mean value.

[2] = test system: LXFL NCl-H460; details: 72 h, three days of treatment, read-out: abs. IC50
Method: as §1, §2, §3, §4, §5

[3] = test system: LIXFH Hep G2; details: Homo sapiens, HepG2, 72 h, three days of treatment, read-out: abs. IC50
Method: as §1, §2, §3, §4, §5

[4] = test system: LIXAH HLE; details: 72 h, three days of treatment, read-out: abs. IC50
Method: as §1, §2, §3, §4, §5

[5] = test system: MEXF M14; details: 72 h, three days of treatment, read-out: abs. IC50
Method: as §1, §2, §3, §4, §5

[6] = test system: UXF EFE-184; details: Homo sapiens, 72 h, three days of treatment, read-out: abs. IC50
Method: as §1, §2, §3, §4, §5

[7] = test system: LYXFNH U-937; details: Homo sapiens, 72 h, three days of treatment, read-out: abs. IC50
Method: as §1, §2, §3, §4, §5

[8] = test system: LEXFCM K-562; details: Homo sapiens, K562, 72 h, three days of treatment, read-out: abs. IC50
Method: as §1, §2, §3, §4, §5

[9] = test system: MAXFHER SK-BR-3; details: Homo sapiens, 72 h, three days of treatment, read-out: abs. IC50
Method: as §1, §2, §3, §4, §5

[10] = test system: LXFA A549; details: Homo sapiens, 72 h, three days of treatment, read-out: abs. IC50
Method: as §1, §2, §3, §4, §5

[11] = test system: LIXFH HEP-3B; details: Homo sapiens, Hep3B, 72 h, three days of treatment, read-out: abs. IC50
Method: as §1, §2, §3, §4, §5

[12] = test system: LXFA NCl-H1975; details: 72 h, three days of treatment, read-out: abs. IC50
Method: as §1, §2, §3, §4, §5

[13] = test system: PRXF VCap; details: Homo sapiens, 72 h, three days of treatment, read-out: abs. IC50
Method: as §1, §2, §3, §4, §5

[14] = test system: OVXF SK-OV-3; details: Homo sapiens, 72 h, three days of treatment, read-out: abs. IC50
Method: as §1, §2, §3, §4, §5

[15] = test system: MEXF A-375; details: Homo sapiens, 72 h, three days of treatment, read-out: abs. IC50
Method: as §1, §2, §3, §4, §5

[16] = test system: MAXFTN BT-549; details: Homo sapiens, 72 h, three days of treatment, read-out: abs. IC50
Method: as §1, §2, §3, §4, §5

[17] = test system: PRXF DU-145; details: Homo sapiens, 72 h, three days of treatment, read-out: abs. IC50
Method: as §1, §2, §3, §4, §5

[18] = test system: PRXF 22Rv1; details: Homo sapiens, 72 h, three days of treatment, read-out: abs. IC50
Method: as §1, §2, §3, §4, §5

[19] = test system: MEXF MDA-MB-435; details: Homo sapiens, 72 h, three days of treatment, read-out: abs. IC50
Method: as §1, §2, §3, §4, §5

[20] = test system: MEXF A2058; details: Homo sapiens, 72 h, three days of treatment, read-out: abs. IC50
Method: as §1, §2, §3, §4, §5

[21] = test system: CXF COLO 205; details: Homo sapiens, 72 h, three days of treatment, read-out: abs. IC50
Method: as §1, §2, §3, §4, §5

[22] = test system: MMXF U-266; details: Homo sapiens, 72 h, three days of treatment, read-out: abs. IC50
Method: as §1, §2, §3, §4, §5

[23] = test system: CNXF U-87 MG; details: Homo sapiens, 72 h, three days of treatment, read-out: abs. IC50
Method: as §1, §2, §3, §4, §5

[24] = test system: LXFE Calu-1; details: Homo sapiens, 72 h, three days of treatment, read-out: abs. IC50
Method: as §1, §2, §3, §4, §5

[25] = test system: UXF MFE-319; details: 72 h, three days of treatment, read-out: abs. IC50
Method: as §1, §2, §3, §4, §5

[26] = test system: MAXFLB T47D (ER+); details: Homo sapiens, 72 h, three days of treatment, read-out: abs. IC50
Method: as §1, §2, §3, §4, §5

[27] = test system: LXFL NCl-H1299; details: 72 h, three days of treatment, read-out: abs. IC50
Method: as §1, §2, §3, §4, §5

[28] = test system: LEXFCL MEC-1; details: Homo sapiens, MEC1, 72 h, three days of treatment, read-out: abs. IC50
Method: as §1, §2, §3, §4, §5

[29] = test system: PAXF MIA-Pa-Ca-2; details: Homo sapiens, MIA PaCa-2, 72 h, three days of treatment, read-out: abs. IC50
Method: as §1, §2, §3, §4, §5

[30] = test system: GXA MKN45; details: Homo sapiens, MKN-45, 72 h, three days of treatment, read-out: abs. IC50
Method: as §1, §2, §3, §4, §5

[31] = test system: PRXF LNCaP; details: Homo sapiens, 72 h, three days of treatment, read-out: abs. IC50
Method: as §1, §2, §3, §4, §5

[32] = test system: MEXF WM-266-4; details: Homo sapiens, 72 h, three days of treatment, read-out: abs. IC50
Method: as §1, §2, §3, §4, §5

## O=C1NCC[C@@]12Cc1cnc(Nc3ccc(N4CCNCC4)cc3F)nc1N(C1CCCC1)C2=O [Example D146, (S)-8-cyclopentyl-2-((2-fluoro-4-(piperazin-1-yl)phenyl)amino)-5,8-dihydro-7H-spiro[pyrido[2,3-d]pyrimidine-6,3′-pyrrolidine]-2′,7-dione]
[1]
  IC50: 0.756 µM
[2]
  IC50: 2.13 µM
[3]
  IC50: 0.341 µM
[4]
  IC50: 0.928 µM
[5]
  IC50: 1.58 µM
[6]
  IC50: 2.08 µM
[7]
  IC50: ≤ 0.01 µM
[8]
  IC50: 4.94 µM
[9]
  IC50: 1.02 µM
[10]
  IC50: 3.41 µM
[11]
  IC50: 3.67 µM
[12]
  IC50: 0.356 µM
[13]
  IC50: 1.26 µM
[14]
  IC50: 8.26 µM
[15]
  IC50: 0.263 µM
[16]
  IC50: 2.31 µM
[17]
  IC50: 0.544 µM
[18]
  IC50: 0.138 µM
[19]
  IC50: 0.875 µM
[20]
  IC50: 1.53 µM
[21]
  IC50: 0.577 µM
[22]
  IC50: 4.55 µM
[23]
  IC50: 10.8 µM
[24]
  IC50: 5.96 µM
[25]
  IC50: 1.14 µM
[26]
  IC50: 1.63 µM
[27]
  IC50: 8.9 µM
[28]
  IC50: 0.142 µM
[29]
  IC50: 6.3 µM
[30]
  IC50: 3.12 µM
[31]
  IC50: 0.349 µM
[32]
  IC50: 6.22 µM

## CN(C)CCOc1ccc(Nc2ncc3c(n2)N(C2CCCC2)C(=O)[C@]2(CCNC2=O)C3)cc1 [Example D179, (S)-8-cyclopentyl-2-((4-(2-(dimethylamino)ethoxy)phenyl)amino)-5,8-dihydro-7H-spiro[pyrido[2,3-d]pyrimidine-6,3′-pyrrolidine]-2′,7-dione]
[1]
  IC50: 0.116 µM
[2]
  IC50: 0.274 µM
[3]
  IC50: 0.037 µM
[4]
  IC50: 0.103 µM
[5]
  IC50: 0.268 µM
[6]
  IC50: 0.244 µM
[7]
  IC50: ≤ 0.01 µM
[8]
  IC50: 0.355 µM
[9]
  IC50: 0.328 µM
[10]
  IC50: 3.31 µM
[11]
  IC50: 0.171 µM
[12]
  IC50: 0.029 µM
[13]
  IC50: 0.037 µM
[14]
  IC50: 0.772 µM
[15]
  IC50: 0.061 µM
[16]
  IC50: 0.252 µM
[17]
  IC50: 0.047 µM
[18]
  IC50: 0.021 µM
[19]
  IC50: 0.102 µM
[20]
  IC50: 0.174 µM
[21]
  IC50: 0.101 µM
[22]
  IC50: 0.814 µM
[23]
  IC50: ≥ 100 µM
[24]
  IC50: 1.25 µM
[25]
  IC50: 0.144 µM
[26]
  IC50: 0.829 µM
[27]
  IC50: 0.353 µM
[28]
  IC50: 0.447 µM
[29]
  IC50: 0.163 µM
[30]
  IC50: 0.112 µM
[31]
  IC50: 0.024 µM
[32]
  IC50: 0.272 µM

## CN(C)[C@H]1CCN(c2ccc(Nc3ncc4c(n3)N(C3CCCC3)C(=O)[C@]3(CCNC3=O)C4)nc2)C1 [Example D178, (S)-8-cyclopentyl-2-((5-((S)-3-(dimethylamino)pyrrolidin-1-yl)pyridin-2-yl)amino)-5,8-dihydro-7H-spiro[pyrido[2,3-d]pyrimidine-6,3′-pyrrolidine]-2′,7-dione]
[1]
  IC50: 12.1 µM
[2]
  IC50: 63.4 µM
[3]
  IC50: 5.31 µM
[4]
  IC50: 21.3 µM
[5]
  IC50: 24.6 µM
[6]
  IC50: 22.6 µM
[7]
  IC50: ≤ 0.01 µM
[8]
  IC50: 75.7 µM
[9]
  IC50: 31.9 µM
[10]
  IC50: 69.9 µM
[11]
  IC50: 67.8 µM
[12]
  IC50: 16.6 µM
[13]
  IC50: 21.1 µM
[14]
  IC50: 76.7 µM
[15]
  IC50: 0.769 µM
[16]
  IC50: 16.6 µM
[17]
  IC50: 19.2 µM
[18]
  IC50: 0.447 µM
[19]
  IC50: 18.3 µM
[20]
  IC50: 60.4 µM
[21]
  IC50: 6.22 µM
[22]
  IC50: 62.3 µM
[23]
  IC50: 75.5 µM
[24]
  IC50: 78.6 µM
[25]
  IC50: 11.3 µM
[26]
  IC50: 46.2 µM
[27]
  IC50: 30.1 µM
[28]
  IC50: 37 µM
[29]
  IC50: 65.9 µM
[30]
  IC50: 47.3 µM
[31]
  IC50: 20.8 µM
[32]
  IC50: 74.4 µM

## CC(C)N1CCN(c2ccc(Nc3ncc4c(n3)N(C3CCCC3)C(=O)[C@]3(CCNC3=O)C4)nc2)CC1 [Example D154, (S)-8-cyclopentyl-2-((5-(4-isopropylpiperazin-1-yl)pyridin-2-yl)amino)-5,8-dihydro-7H-spiro[pyrido[2,3-d]pyrimidine-6,3′-pyrrolidine]-2′,7-dione]
[1]
  IC50: 2.87 µM
[2]
  IC50: 35.3 µM
[3]
  IC50: 8.14 µM
[4]
  IC50: 21.5 µM
[5]
  IC50: 21.4 µM
[6]
  IC50: 34.6 µM
[7]
  IC50: ≤ 0.01 µM
[8]
  IC50: 84.4 µM
[9]
  IC50: 13.8 µM
[10]
  IC50: 79.2 µM
[11]
  IC50: 78.9 µM
[12]
  IC50: 26.3 µM
[13]
  IC50: 25.4 µM
[14]
  IC50: 59.9 µM
[15]
  IC50: 0.254 µM
[16]
  IC50: 19.6 µM
[17]
  IC50: 30.6 µM
[18]
  IC50: 1.42 µM
[19]
  IC50: 16 µM
[20]
  IC50: 14.5 µM
[21]
  IC50: 4.76 µM
[22]
  IC50: 78.5 µM
[23]
  IC50: ≥ 100 µM
[24]
  IC50: 48.7 µM
[25]
  IC50: 5.43 µM
[26]
  IC50: 97.4 µM
[27]
  IC50: 37.3 µM
[28]
  IC50: 9.7 µM
[29]
  IC50: 73.9 µM
[30]
  IC50: 47.8 µM
[31]
  IC50: 31.1 µM
[32]
  IC50: 81.3 µM

— patent US20230048132A1, “CYCLIN-DEPENDENT KINASE INHIBITORS” (SPV THERAPEUTICS INC., priority 2018, published 2023)
